# Like-named read-outs stand apart in the source and are kept apart here.
# Experiments:
# plasma kallikrein = target: T1, plasma kallikrein (Homo sapiens, UniProt P03952); assay: Plasma kallikrein activity in subject samples, contact activation assay with fluorogenic substrate; type: in vivo
# T1 construct: normal levels of C1INH present in healthy subject plasma samples; from tissue; host or cells: plasma samples of healthy human subjects
# Experimental: Plasma kallikrein activity was assessed in subject samples with an exploratory contact activation assay using a fluorogenic artificial substrate for kallikrein. In this assay, the contact pathway is activated by addition of ellagic acid, and amidolytic activity is measured. Results are expressed as percent inhibition compared to subject baseline samples and reflect inhibition additional to that resulting from the activity of normal levels of C1INH present in healthy subject plasma samples. Analysis of plasma kallikrein activity following single doses of the compound of Example 1 was performed through 12 hours postdose. […] The time course of inhibition generally followed the plasma pharmacokinetics of the compound. The greatest effect was seen around the time of Cmax. Plasma kallikrein inhibition largely returned to baseline at 12 hours postdose, when plasma concentrations of the compound of Example 1 were low (generally <10 ng/mL).
# Plasma kallikrein activity profiles were measured in Part 2 subjects on day 7 of dosing and the results were expressed as percent inhibition compared to the activity present in the Day 1 predose plasma sample. […] Kallikrein inhibition was observed through the last dosing interval on day 7 compared to placebo (p<0.0001).
# [1] = Concentration achieved in formulations and excipient mixtures; type: physicochemical
# Experimental: In initial formulation work for the amidine compounds described herein, in particular 3-[2-(4-carbamimidoyl-phenylcarbamoyl)-5-methoxy-4-vinyl-phenyl]-6-(cyclopropylmethyl-carbamoyl)-pyridine-2-carboxylic acid, extensive studies were carried out to identify a suitable mixture of excipients to produce the oral formulation described herein.
# Specifically, a variety of approaches were taken to develop suitable oral formulations of 3-[2-(4-carbamimidoyl-phenylcarbamyl)-5-methoxy-4-vinyl-phenyl]-6-(cyclopropylmethyl-carbamoyl)-pyridine-2-carboxylic acid. The approaches taken included use of a variety of hydrophilic polymers, including α-cyclodextrin and a polyanionic 3-cyclodextrin derivative with a sodium sulfonate salt separated from the lipophilic cavity by a butyl ether or sulfobutylether spacer group in combination with a variety of co-solvents. In addition, the compound was evaluated in formulations created by a number of different technologies (such as dry blends, nanosuspensions, solid dispersion and emulsions) using a variety of approaches.
# [2] = pH-solubility curve in citrate-phosphate buffers; type: physicochemical; conditions: free base, FIG. 1
# Text: A pH-solubility curve was generated for the compound of Example 1 in citrate-phosphate buffers to evaluate the effect of pH on solubility of the free base material.
# [3] = Phase 1 Part 2, multiple ascending dose pharmacokinetics (7 days, q8h); type: in vivo, human; conditions: for Cmax / AUC(0-t) / Tmax / AUC / half-life / concentration at 8 h: human, plasma, oral; for AUC(0-t): read-out: AUC0-8; for concentration at 8 h: read-out: Ctau
# Experimental: Part 2 of the study evaluated the safety, tolerability, PK, and PD of multiple ascending doses of the compound of Example 1. Twelve subjects were administered a 7-day course of the compound of Example 1 (n=10 subjects/cohort received the API and n=2 subjects/cohort received matching placebo) according to the following dose regimens: 100 mg of the compound of Example 1 or placebo every 8 hours (q8h) in Cohort 1; 200 mg of the compound of Example 1 or placebo q8h in Cohort 2; 400 mg of the compound of Example 1 or placebo q8h in Cohort 3 and 800 mg of the compound of Example 1 or placebo q8h in Cohort 4.
# A total of 48 subjects were enrolled in Part 2 of the Study and 47 subjects completed the study. A summary of pharmacokinetic parameters for the compound of Example 1 for the first dose on Day 1 and last dose on Day 7 is presented in Table 17. […] Day 7 geometric mean exposure (AUCtau and Cmax) did increase with increasing dose. Drug exposure was dose proportional through 400 mg three times a day. At 400 mg three times a day, pre-dose geometric mean drug levels and coefficient of variation (CV) on day 7 were 28.6 ng/ml and 77% and post-dose geometric mean maximum drug levels and CV were 152 ng/ml and 57%. Plasma concentrations of the compound of Example 1 over 25 ng/ml are expected to be efficacious in treating conditions such as, but not limited to, HAE and AAE.
# [4] = 400 mg three times a day, day 7
# [5] = 100 mg, Day 1, 100 mg q 8 h, GM
# [6] = 100 mg, Day 1, 100 mg q 8 h, Median
# [7] = 100 mg, Day 7, 100 mg q 8 h, GM
# [8] = 100 mg, Day 7, 100 mg q 8 h, Median
# [9] = 200 mg, Day 1, 200 mg q 8 h, GM
# [10] = 200 mg, Day 1, 200 mg q 8 h, Median
# [11] = 200 mg, Day 7, 200 mg q 8 h, GM
# [12] = 200 mg, Day 7, 200 mg q 8 h, Median
# [13] = 400 mg, Day 1, 400 mg q 8 h, GM
# [14] = 400 mg, Day 1, 400 mg q 8 h, Median
# [15] = 400 mg, Day 7, 400 mg q 8 h, GM
# [16] = 400 mg, Day 7, 400 mg q 8 h, Median
# [17] = 800 mg, Day 1, 800 mg q 8 h, GM
# [18] = 800 mg, Day 1, 800 mg q 8 h, Median
# [19] = 800 mg, Day 7, 800 mg q 8 h, GM
# [20] = 800 mg, Day 7, 800 mg q 8 h, Median
# T1 sequence (P03952 391-638 limits assumed): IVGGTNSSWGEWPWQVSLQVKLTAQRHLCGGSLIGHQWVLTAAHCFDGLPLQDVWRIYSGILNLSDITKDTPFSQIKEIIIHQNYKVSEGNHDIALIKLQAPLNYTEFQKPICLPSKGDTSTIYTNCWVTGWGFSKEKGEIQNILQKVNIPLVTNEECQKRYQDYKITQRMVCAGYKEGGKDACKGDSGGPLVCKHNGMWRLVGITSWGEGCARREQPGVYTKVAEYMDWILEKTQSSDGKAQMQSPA
# T1 sequence (P03952 20-390 partner limits assumed): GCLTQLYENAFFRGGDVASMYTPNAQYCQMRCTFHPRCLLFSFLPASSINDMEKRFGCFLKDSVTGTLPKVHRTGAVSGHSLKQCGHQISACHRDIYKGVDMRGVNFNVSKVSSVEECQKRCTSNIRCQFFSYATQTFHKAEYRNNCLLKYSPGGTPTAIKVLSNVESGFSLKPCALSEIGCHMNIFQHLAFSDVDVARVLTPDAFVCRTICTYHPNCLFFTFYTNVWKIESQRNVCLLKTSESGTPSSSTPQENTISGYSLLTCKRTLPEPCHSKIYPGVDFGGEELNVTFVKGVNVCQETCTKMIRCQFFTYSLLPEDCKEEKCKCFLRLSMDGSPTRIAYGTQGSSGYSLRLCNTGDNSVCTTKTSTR
smiles,measurement,setting,value
"C=Cc1cc(C(=O)Nc2ccc(C(=N)N)cc2)c(-c2ccc(C(=O)NCC3CC3)nc2C(=O)O)cc1OC [Example 1, 3-[2-(4-carbamimidoyl-phenylcarbamoyl)-5-methoxy-4-vinyl-phenyl]-6-(cyclopropylmethyl-carbamoyl)-pyridine-2-carboxylic acid]",Kallikrein inhibition compared to Day 1 predose,"plasma kallikrein; beginning and end of the dosing interval on Day 7, two highest dose cohorts (400, 800 mg q8h), FIG. 11",30-40%
same,change of plasma kallikrein activity in comparison to placebo,plasma kallikrein; single doses of 50-250 mg,modest but real changes
same,concentration dissolved,"[1]; 1,2-propanediol, especially as part of a mixture of polar protic solvents",up to 140 mg/ml
same,concentration in formulation,"[1]; initial formulations: cyclodextrins, co-solvents, dry blends, nanosuspensions, solid dispersion, emulsions",less than 10.5 mg/ml
same,concentration in formulation,[1]; novel excipient mixtures of the invention,at least 100 mg/ml
same,concentration dissolved,"[1]; polyethylene glycol 600, especially as part of a mixture of polar protic solvents",up to 140 mg/ml
same,effect of pH on aqueous solubility,[2],not a significant effect
same,post-dose geometric mean maximum drug level,[3]; [4],152 ng/mL
same,pre-dose geometric mean drug level,[3]; [4],28.6 ng/mL
same,accumulation in Cmax and AUC after repeated dosing compared to first day,[3]; 7 days q8h,approximately 30%
same,Ctau,"[3]; Day 7, 100 mg q 8 h, GM",8.34 ng/mL
same,DN AUCtau,"[3]; Day 7, 100 mg q 8 h, GM",2.37 ng·h/mL/mg
same,Ctau,"[3]; Day 7, 100 mg q 8 h, Median",7.92 ng/mL
same,DN AUCtau,"[3]; Day 7, 200 mg q 8 h, GM",1.58 ng·h/mL/mg
same,DN AUCtau,"[3]; Day 7, 400 mg q 8 h, GM",1.34 ng·h/mL/mg
same,Ctau,"[3]; Day 7, 800 mg q 8 h, GM",23.7 ng/mL
same,DN AUCtau,"[3]; Day 7, 800 mg q 8 h, GM",0.847 ng·h/mL/mg
same,Ctau,"[3]; Day 7, 800 mg q 8 h, Median",30.3 ng/mL
same,time of maximal concentrations postdose,[3]; across dosing days and cohorts,approximately 2 hours
same,Cmax,[3]; [5],54.5 ng/mL
same,AUC(0-t),[3]; [5],173 ng·h/mL
same,Cmax,[3]; [6],49.4 ng/mL
same,Tmax,[3]; [6],1 h
same,AUC(0-t),[3]; [6],185 ng·h/mL
same,AUC,[3]; [7],237 ng·h/mL
same,Cmax,[3]; [7],72.6 ng/mL
same,half-life,"[3]; 100 mg, Day 7, 100 mg q 8 h, GM, read-out: t1/2 (converted)",12.4 h
same,AUC,[3]; [8],246 ng·h/mL
same,Cmax,[3]; [8],71.2 ng/mL
same,Tmax,[3]; [8],2 h
same,half-life,"[3]; 100 mg, Day 7, 100 mg q 8 h, Median, read-out: t1/2 (converted)",11.5 h
same,Cmax,[3]; [9],72 ng/mL
same,AUC(0-t),[3]; [9],236 ng·h/mL
same,Cmax,[3]; [10],89.7 ng/mL
same,Tmax,[3]; [10],2 h
same,AUC(0-t),[3]; [10],251 ng·h/mL
same,AUC,[3]; [11],316 ng·h/mL
same,Cmax,[3]; [11],83.6 ng/mL
same,concentration at 8 h,[3]; [11],12.9 ng/mL
same,half-life,"[3]; 200 mg, Day 7, 200 mg q 8 h, GM, read-out: t1/2 (converted)",12.6 h
same,AUC,[3]; [12],385 ng·h/mL
same,Cmax,[3]; [12],92.3 ng/mL
same,Tmax,[3]; [12],2 h
same,concentration at 8 h,[3]; [12],13 ng/mL
same,half-life,"[3]; 200 mg, Day 7, 200 mg q 8 h, Median, read-out: t1/2 (converted)",13.5 h
same,Cmax,[3]; [13],119 ng/mL
same,AUC(0-t),[3]; [13],421 ng·h/mL
same,Cmax,[3]; [14],124 ng/mL
same,Tmax,[3]; [14],2 h
same,AUC(0-t),[3]; [14],395 ng·h/mL
same,AUC,[3]; [15],534 ng·h/mL
same,Cmax,[3]; [15],152 ng/mL
same,concentration at 8 h,[3]; [15],17.4 ng/mL
same,half-life,"[3]; 400 mg, Day 7, 400 mg q 8 h, GM, read-out: t1/2 (converted)",13 h
same,AUC,[3]; [16],463 ng·h/mL
same,Cmax,[3]; [16],129 ng/mL
same,Tmax,[3]; [16],2 h
same,concentration at 8 h,[3]; [16],14.6 ng/mL
same,half-life,"[3]; 400 mg, Day 7, 400 mg q 8 h, Median, read-out: t1/2 (converted)",12.7 h
same,Cmax,[3]; [17],143 ng/mL
same,AUC(0-t),[3]; [17],504 ng·h/mL
same,Cmax,[3]; [18],153 ng/mL
same,Tmax,[3]; [18],2 h
same,AUC(0-t),[3]; [18],581 ng·h/mL
same,AUC,[3]; [19],678 ng·h/mL
same,Cmax,[3]; [19],187 ng/mL
same,half-life,"[3]; 800 mg, Day 7, 800 mg q 8 h, GM, read-out: t1/2 (converted)",7.46 h
same,AUC,[3]; [20],835 ng·h/mL
same,Cmax,[3]; [20],240 ng/mL
same,Tmax,[3]; [20],2 h
same,half-life,"[3]; 800 mg, Day 7, 800 mg q 8 h, Median, read-out: t1/2 (converted)",8.03 h
same,half-life,"[3]; calculated over a 24 hour period, read-out: terminal elimination half-life (converted)",~10 h
